Data from US10500219B2, “Compositions and methods for tissue regeneration” (ORBIS HEALTH SOLUTIONS LLC, priority 2012, dated 2019).

System: chronic Foot Rot
Test: Chronic Foot Rot with proliferative mass in a heifer (Example 25)
Format: in vivo, American Shorthorn heifer
Settings: injectable antibiotic for 7 days, before cream treatment
From the text: A two-year old female American Shorthorn heifer was presented with lameness and a proliferative mass (3″ in diameter)with associated swelling and large dense scab between the digits of the left hind foot diagnosed as chronic Foot Rot. […] After 4 months lameness reoccurred and the area again became inflamed. […] A surgical consultation determined that the area needed to be surgically excised under general anesthesia. Due to late term pregnancy, surgery was postponed until after delivery. While waiting for surgery, the cream of Example 18 was applied once daily by massaging the cream into the area between the digits. […] No surgery or further antibiotic therapy was anticipated. FIG. 11A depicts the infection in the left hind foot before treatment and FIG. 11B depicts the infected area after 3 weeks of treatment with the cream of Example 18.

Compound: CS(=O)(=O)c1ccc([C@@H](O)[C@@H](CF)NC(=O)C(Cl)Cl)cc1 [Nuflor]
- lameness: reduced lameness
- reduction of mass size: approximately ⅓
